Measured values reported in the NIST ThermoML archive (doi:10.1021/je3009123).

Columns and labels:
[1] = mn = molality of the nth substance listed, in mol/kg; details: 100 kPa, Liquid; for speed of sound: Linear variable-path acoustic interferometer; for mass density: Pycnometric method
[2] = refractive index (Na D-line) (dimensionless); mn = molality of the nth substance listed, in mol/kg; details: 100 kPa, Liquid, Standard Abbe refractometry

CC1NC(=O)C(C)NC1=O (stereo not given) [3,6-dimethyl-2,5-piperazinedione] + O
m1 = 0.05
Details	mass density, [1] [kg/m3]	refractive index, [2]	speed of sound, [1] [m/s]
293.15 K	999.9	1.3351	1499.7
298.15 K	998.82	1.3344	1509.5
303.15 K	997.48	1.3337	1521.1
308.15 K	996.18	1.3331	1527.9
313.15 K	994.84	1.3324	1535.9

[Cl][Co][Cl] [cobalt chloride] + O
m1 = 0.1
Details	mass density, [1] [kg/m3]	refractive index, [2]	speed of sound, [1] [m/s]
293.15 K	1014	1.3373	1502.5
298.15 K	1013	1.3368	1512
303.15 K	1011.84	1.3361	1524
308.15 K	1010.16	1.3356	1533.9
313.15 K	1007.89	1.335	1541.7
